Holding throughout (assay type): cell-based
In experiment [1] the test system is IL-2 secretion from T cells in human whole blood. The note with it: read-out: WB (IL-2) IC50 (nM, Avg).
The target of the next experiment is hKv1.3 (Homo sapiens, UniProt P22001). The experiment is described as follows: cell-based. The note with it: Kv1.3 (IWQ) IC50 (nM, Avg).
Experiment [2] concerns IFN-g secretion from T cells in human whole blood. The note with it: read-out: WB (IFNg) IC50 (nM, Avg).

Eight compounds from patent US20120121591A1 (priority 2009, published 2012) can be followed below.

Sequence of hKv1.3 (P22001 whole entry): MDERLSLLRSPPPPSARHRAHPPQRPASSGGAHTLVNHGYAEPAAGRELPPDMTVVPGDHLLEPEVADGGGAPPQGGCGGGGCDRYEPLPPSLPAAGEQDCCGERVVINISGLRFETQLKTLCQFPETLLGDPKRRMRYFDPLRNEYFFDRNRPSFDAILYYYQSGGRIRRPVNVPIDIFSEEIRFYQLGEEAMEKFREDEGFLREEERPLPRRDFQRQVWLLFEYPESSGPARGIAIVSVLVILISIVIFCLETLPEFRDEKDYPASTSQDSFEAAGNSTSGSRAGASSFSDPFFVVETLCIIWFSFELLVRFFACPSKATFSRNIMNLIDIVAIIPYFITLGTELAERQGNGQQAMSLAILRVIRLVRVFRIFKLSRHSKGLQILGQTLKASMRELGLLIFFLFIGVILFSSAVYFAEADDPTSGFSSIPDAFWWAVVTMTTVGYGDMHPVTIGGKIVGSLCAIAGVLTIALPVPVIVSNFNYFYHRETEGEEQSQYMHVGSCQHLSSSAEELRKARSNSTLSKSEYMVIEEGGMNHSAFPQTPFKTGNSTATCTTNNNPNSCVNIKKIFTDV

Take `CCCC[C@@H]1NC(=O)[C@H](CO)NC(=O)[C@H](Cc2c[nH]cn2)NC(=O)[C@H](CCCCN)NC(=O)[C@@H]2CSSC[C@@H]3NC(=O)[C@H]([C@@H](C)O)NC(=O)[C@H](CCCNC(=N)N)NC(=O)[C@H](CCCNC(=N)N)NC(=O)[C@H](CSSC[C@H](NC(=O)[C@H](CCCNC(=N)N)NC(=O)[C@H](CO)NC(=O)[C@H](CCCCN)NC(=O)[C@@H]4CCCN4C(=O)[C@H]([C@@H](C)CC)NC(=O)[C@H]([C@@H](C)O)NC(=O)[C@H](CC(=O)O)NC(=O)[C@H]([C@@H](C)CC)NC(=O)[C@@H](NC(=O)[C@H](CO)NC(=O)[C@@H](N)CCCNC(=N)N)CSSC[C@@H](C(N)=O)NC(=O)[C@H]([C@@H](C)O)NC(=O)CNC3=O)C(=O)N[C@@H]([C@@H](C)O)C(=O)N[C@@H](C)C(=O)N[C@@H](C)C(=O)N[C@@H](CCCCN)C(=O)N2)NC(=O)[C@H](Cc2ccccc2)NC(=O)[C@H](CO)NC(=O)[C@H](CC(C)C)NC(=O)[C@H](CCCNC(=N)N)NC(=O)[C@H](Cc2ccc(O)cc2)NC(=O)[C@H](CCCCN)NC1=O` [[Ala15, Lys16, Nle21,Arg30]ShK-amide]: the half-inhibitory concentration (IC50) in experiment [1] was 1.35 nM; on hKv1.3, 0.329 nM; in experiment [2], 1.71 nM.
The matching figures for `CCCC[C@@H]1NC(=O)[C@H](CO)NC(=O)[C@H](Cc2c[nH]cn2)NC(=O)[C@H](CCCCN)NC(=O)[C@@H]2CSSC[C@@H]3NC(=O)[C@H]([C@@H](C)O)NC(=O)[C@H](CCCCN)NC(=O)[C@H](CCCNC(=N)N)NC(=O)[C@H](CSSC[C@H](NC(=O)[C@H](CCCNC(=N)N)NC(=O)[C@H](CO)NC(=O)[C@H](CCCCN)NC(=O)[C@@H]4CCCN4C(=O)[C@H]([C@@H](C)CC)NC(=O)[C@H]([C@@H](C)O)NC(=O)[C@H](CC(=O)O)NC(=O)[C@H]([C@@H](C)CC)NC(=O)[C@@H](NC(=O)[C@H](CO)NC(=O)[C@@H](N)CCCNC(=N)N)CSSC[C@@H](C(N)=O)NC(=O)[C@H]([C@@H](C)O)NC(=O)CNC3=O)C(=O)N[C@@H]([C@@H](C)O)C(=O)N[C@@H](C)C(=O)N[C@@H](C)C(=O)N[C@@H](CCCCN)C(=O)N2)NC(=O)[C@H](Cc2ccccc2)NC(=O)[C@H](CO)NC(=O)[C@H](CC(C)C)NC(=O)[C@H](CCCNC(=N)N)NC(=O)[C@H](Cc2ccc(O)cc2)NC(=O)[C@H](CCCCN)NC1=O` [[Ala15, Lys16,Nle21]ShK-amide]: 0.952 nM, 0.127 nM and 1.87 nM.
For the compound `CC[C@H](C)[C@@H]1NC(=O)[C@@H](NC(=O)[C@H](CO)NC(=O)[C@@H](N)CCCNC(=N)N)CSSC[C@@H](C(=O)O)NC(=O)[C@H]([C@@H](C)O)NC(=O)CNC(=O)[C@@H]2CSSC[C@@H]3NC(=O)[C@H](CCCCN)NC(=O)[C@H](C)NC(=O)[C@H](C)NC(=O)[C@H]([C@@H](C)O)NC(=O)[C@H](CSSC[C@H](NC(=O)[C@H](Cc4ccccc4)NC(=O)[C@H](CO)NC(=O)[C@H](CC(C)C)NC(=O)[C@H](CCCNC(=N)N)NC(=O)[C@H](Cc4ccc(O)cc4)NC(=O)[C@H](CCCCN)NC(=O)[C@H](CCSC)NC(=O)[C@H](CO)NC(=O)[C@H](Cc4c[nH]cn4)NC(=O)[C@H](CCCCN)NC3=O)C(=O)N[C@@H](CCCNC(=N)N)C(=O)N[C@@H](CCCCN)C(=O)N[C@@H]([C@@H](C)O)C(=O)N2)NC(=O)[C@H](CCCNC(=N)N)NC(=O)[C@H](CO)NC(=O)[C@H](CCCCN)NC(=O)[C@@H]2CCCN2C(=O)[C@H]([C@@H](C)CC)NC(=O)[C@H]([C@@H](C)O)NC(=O)[C@H](CC(=O)O)NC1=O` [[Ala15, Lys16]ShK], the 50% inhibitory concentration (IC50) in experiment [1] was found to be 0.057 nM; against hKv1.3, 0.96 nM; in experiment [2] it was 0.052 nM.
The matching figures for `CC[C@H](C)[C@@H]1NC(=O)[C@@H](NC(=O)[C@H](CO)NC(=O)[C@@H](N)CCCNC(=N)N)CSSC[C@@H](C(N)=O)NC(=O)[C@H]([C@@H](C)O)NC(=O)CNC(=O)[C@@H]2CSSC[C@@H]3NC(=O)[C@H](CCCCN)NC(=O)[C@H](C)NC(=O)[C@H](C)NC(=O)[C@H]([C@@H](C)O)NC(=O)[C@H](CSSC[C@H](NC(=O)[C@H](Cc4ccccc4)NC(=O)[C@H](CO)NC(=O)[C@H](CC(C)C)NC(=O)[C@H](CCCNC(=N)N)NC(=O)[C@H](Cc4ccc(O)cc4)NC(=O)[C@H](CCCCN)NC(=O)[C@H](CCSC)NC(=O)[C@H](CO)NC(=O)[C@H](Cc4c[nH]cn4)NC(=O)[C@H](CCCCN)NC3=O)C(=O)N[C@@H](CCCNC(=N)N)C(=O)N[C@@H](CCCCN)C(=O)N[C@@H]([C@@H](C)O)C(=O)N2)NC(=O)[C@H](CCCNC(=N)N)NC(=O)[C@H](CO)NC(=O)[C@H](CCCCN)NC(=O)[C@@H]2CCCN2C(=O)[C@H]([C@@H](C)CC)NC(=O)[C@H]([C@@H](C)O)NC(=O)[C@H](CC(=O)O)NC1=O` [[Ala15,Lys16]ShK-amide]: 0.167 nM, 0.091 nM and 0.193 nM.
The corresponding values for `CC[C@H](C)[C@@H]1NC(=O)[C@@H](NC(=O)[C@H](CO)NC(=O)[C@@H](N)CCCNC(=N)N)CSSC[C@@H](C(=O)O)NC(=O)[C@H]([C@@H](C)O)NC(=O)CNC(=O)[C@@H]2CSSC[C@@H]3NC(=O)[C@H](CCC(N)=O)NC(=O)[C@H](Cc4ccccc4)NC(=O)[C@H](C)NC(=O)[C@H]([C@@H](C)O)NC(=O)[C@H](CSSC[C@H](NC(=O)[C@H](Cc4ccccc4)NC(=O)[C@H](CO)NC(=O)[C@H](CC(C)C)NC(=O)[C@H](CCCNC(=N)N)NC(=O)[C@H](Cc4ccc(O)cc4)NC(=O)[C@H](CCCCN)NC(=O)[C@H](CCSC)NC(=O)[C@H](CO)NC(=O)[C@H](C)NC(=O)[C@H](CCCCN)NC3=O)C(=O)N[C@@H](CCCNC(=N)N)C(=O)N[C@@H](CCCCN)C(=O)N[C@@H]([C@@H](C)O)C(=O)N2)NC(=O)[C@H](CCCNC(=N)N)NC(=O)[C@H](CO)NC(=O)[C@H](CCCCN)NC(=O)[C@@H]2CCCN2C(=O)[C@H]([C@@H](C)CC)NC(=O)[C@H]([C@@H](C)O)NC(=O)[C@H](CC(=O)O)NC1=O` [[Ala19]ShK] are 0.379 nM, 0.237 nM and 0.472 nM.
The corresponding values for `CC[C@H](C)[C@@H]1NC(=O)[C@@H](NC(=O)[C@H](CO)NC(=O)[C@@H](N)CCCNC(=N)N)CSSC[C@@H](C(=O)O)NC(=O)[C@H]([C@@H](C)O)NC(=O)CNC(=O)[C@@H]2CSSC[C@@H]3NC(=O)[C@H](CCC(N)=O)NC(=O)[C@H](Cc4ccccc4)NC(=O)[C@H](C)NC(=O)[C@H]([C@@H](C)O)NC(=O)[C@H](CSSC[C@H](NC(=O)[C@H](Cc4ccccc4)NC(=O)[C@H](CO)NC(=O)[C@H](CC(C)C)NC(=O)[C@H](C)NC(=O)[C@H](Cc4ccc(O)cc4)NC(=O)[C@H](CCCCN)NC(=O)[C@H](CCSC)NC(=O)[C@H](CO)NC(=O)[C@H](Cc4c[nH]cn4)NC(=O)[C@H](CCCCN)NC3=O)C(=O)N[C@@H](CCCNC(=N)N)C(=O)N[C@@H](CCCCN)C(=O)N[C@@H]([C@@H](C)O)C(=O)N2)NC(=O)[C@H](CCCNC(=N)N)NC(=O)[C@H](CO)NC(=O)[C@H](CCCCN)NC(=O)[C@@H]2CCCN2C(=O)[C@H]([C@@H](C)CC)NC(=O)[C@H]([C@@H](C)O)NC(=O)[C@H](CC(=O)O)NC1=O` [[Ala24]ShK] are 0.043 nM, 0.062 nM and 0.216 nM.
In the case of `CC[C@H](C)[C@@H]1NC(=O)[C@@H](NC(=O)[C@H](CO)NC(=O)[C@@H](N)CCCNC(=N)N)CSSC[C@@H](C(=O)O)NC(=O)[C@H]([C@@H](C)O)NC(=O)CNC(=O)[C@@H]2CSSC[C@@H]3NC(=O)[C@H](CCC(N)=O)NC(=O)[C@H](Cc4ccccc4)NC(=O)[C@H](C)NC(=O)[C@H]([C@@H](C)O)NC(=O)[C@H](CSSC[C@H](NC(=O)[C@H](Cc4ccccc4)NC(=O)[C@H](CO)NC(=O)[C@H](C)NC(=O)[C@H](CCCNC(=N)N)NC(=O)[C@H](Cc4ccc(O)cc4)NC(=O)[C@H](CCCCN)NC(=O)[C@H](CCSC)NC(=O)[C@H](CO)NC(=O)[C@H](Cc4c[nH]cn4)NC(=O)[C@H](CCCCN)NC3=O)C(=O)N[C@@H](CCCNC(=N)N)C(=O)N[C@@H](CCCCN)C(=O)N[C@@H]([C@@H](C)O)C(=O)N2)NC(=O)[C@H](CCCNC(=N)N)NC(=O)[C@H](CO)NC(=O)[C@H](CCCCN)NC(=O)[C@@H]2CCCN2C(=O)[C@H]([C@@H](C)CC)NC(=O)[C@H]([C@@H](C)O)NC(=O)[C@H](CC(=O)O)NC1=O` [[Ala25]ShK], the IC50 in experiment [1] stood at 0.195 nM; against hKv1.3 it was 0.116 nM; in experiment [2] it was 0.408 nM.
For `CC[C@H](C)[C@@H]1NC(=O)[C@@H](NC(=O)[C@H](CO)NC(=O)[C@@H](N)CCCNC(=N)N)CSSC[C@@H](C(=O)O)NC(=O)[C@H]([C@@H](C)O)NC(=O)CNC(=O)[C@@H]2CSSC[C@@H]3NC(=O)[C@H](CCC(N)=O)NC(=O)[C@H](Cc4ccccc4)NC(=O)[C@H](C)NC(=O)[C@H]([C@@H](C)O)NC(=O)[C@H](CSSC[C@H](NC(=O)[C@H](C)NC(=O)[C@H](CO)NC(=O)[C@H](CC(C)C)NC(=O)[C@H](CCCNC(=N)N)NC(=O)[C@H](Cc4ccc(O)cc4)NC(=O)[C@H](CCCCN)NC(=O)[C@H](CCSC)NC(=O)[C@H](CO)NC(=O)[C@H](Cc4c[nH]cn4)NC(=O)[C@H](CCCCN)NC3=O)C(=O)N[C@@H](CCCNC(=N)N)C(=O)N[C@@H](CCCCN)C(=O)N[C@@H]([C@@H](C)O)C(=O)N2)NC(=O)[C@H](CCCNC(=N)N)NC(=O)[C@H](CO)NC(=O)[C@H](CCCCN)NC(=O)[C@@H]2CCCN2C(=O)[C@H]([C@@H](C)CC)NC(=O)[C@H]([C@@H](C)O)NC(=O)[C@H](CC(=O)O)NC1=O` [[Ala27]ShK], the values for the IC50 (in experiment [1]; against hKv1.3; in experiment [2]) were 1.57 nM, 0.207 nM and 8.78 nM, respectively.
